In test [1] the target is T1, pro-FSAP purified from human plasma (Homo sapiens, UniProt Q14520).
T1 construct: Pro-FSAP was isolated from human plasma as described before; from tissue; host or cells: human plasma
Description: Pro-FSAP activation assay, purified pro-FSAP, chromogenic substrate S-2288. It is filed as biochemical. How it is done:
Figure 1 Isolation of pro-FSAP binding peptides and their activity: (A) strategy to isolate high-affinity phages from the NNKC9 and NNK11 libraries that bind to pro-FSAP. To select for strong binders, an excess of free pro-FSAP protein was used for competitive elution of low-affinity binders. High-affinity binders retained on the beads were analyzed further. The sequences of major positive clones identified through an ELISA-based binding assay from the NNKC9 and NNK11 libraries are shown. (B) NNK11/189 and scrambled controls (0–50 μM) and histones (0–50 μg/mL) were added to purified pro-FSAP (1.0 μg/mL) and the turnover of the chromogenic substrate S-2288 (200 μM) was measured. (C) NNKC9/41 was compared to a peptide that was synthetically monocyclized (Cys–Cys cyclic), a peptide with Ser residues instead of Cys at both ends (Ser–Ser linear), a peptide with Ser residues at the end cyclized head to tail (Ser–Ser cyclic), and a scrambled peptide in a pro-FSAP activation assay. (D) Hirudin plasma (1:12 dilution) was incubated with histones (25 μg/mL), NNKC9/41, or Ser–Ser linear control (each, 25 μM), the fluorogenic substrate turnover (Ac–Ala–Lys–Nle–Arg–AMC) was monitored in duplicate wells, and results from a single well are shown. In panels (B) and (C), results are shown as mean + range (duplicate wells). Results were replicated with five different batches of NNKC9/41 (panels (B) and (C)).
Pro-FSAP was isolated from human plasma as described before.[14] The content of the zymogen form varied from 50% to 90% due to autoactivation during the purification process. Histones, isolated from the calf thymus, were obtained from Sigma-Aldrich (Oslo, Norway). FSAP activity assays were performed as described previously.[51] In brief, microtiter wells were blocked with TBS (25 mM Tris–HCl, pH 7.5, and 150 mM NaCl) containing 3% (w/v) BSA for 1 h and washed with TBS-T. The standard assay consisted of TBS-T with 0.3% (w/v) BSA and CaCl2 (2 mM) 1 μg/mL (15 nM) plasma purified pro-FSAP and 250 μM chromogenic substrate S-2288 (D-Ile-L-Pro-L-Arg-p-nitroaniline dihydrochloride) (Haemochrome Diagnostica, Essen, Germany) and was followed at 37 °C at 405 nm in a microplate reader Synergy HI plate reader (BioTek Instruments, Winooski). In some experiments, a fluorescent substrate of FSAP[35] was used.

A short description of test [2]: Substrate turnover in FSAP-depleted plasma. It is filed as biochemical, human. As to conditions: FSAP-depleted citrate plasma 1:12; 25 μM (Fig 6A). As for the experimental part:
(§1) Figure 6 Pro-FSAP activation and clotting in plasma by NNKC9/41: (A) citrate plasma (1:12 dilution) from donors with WT/WT, WT/MI, and MI/MI genotypes and WT-FSAP-deficient plasma (FSAP-DP) were compared. Substrate turnover was monitored after addition of NNKC9/41 or the Ser–Ser linear peptide (25 μM each). Results are shown as mean + range of duplicate wells. (B) Pooled prothrombin-deficient citrated plasma (1:5 dilution) was recalcified with 10 mM CaCl2 and incubated with NNKC9/41 or scrambled control peptide (0–25 μM each) for 60 min at 37 °C in the presence or absence of the FSAP-inhibitory MA-FSAP-38C7 (5 μg/mL). Initiation of clotting was achieved by adding the tissue factor/phospholipid and prothrombin complex concentrate. Clotting time was measured as diluted prothrombin time (dPT) in seconds. Data are the mean of three independent experiments. The relative dPT in % of the untreated control is presented as mean ± standard error (SE) (*p <0.05, two-way analysis of variance (ANOVA) and Bonferroni post-test).
(§2) Human citrate plasma (0.38% w/v) or hirudin plasma (25 μg/mL Lepirudin) was obtained from five healthy donors. […] Hydrolysis of the fluorogenic substrates was measured using a Synergy HI plate reader with excitation at 320 nm and emission at 460 nm at 37 °C for 60 min. The maximal velocity was calculated from the linear part of the progress curve. […]

For another test, the system named is pro-FSAP in WT/WT plasma. Description: Substrate turnover in WT/WT plasma. It counts as biochemical, human. The conditions noted are these: WT/WT citrate plasma 1:12; 25 μM (Fig 6A). As for the experimental part:
as §1, §2

Here are results for one sequence from paper PMC9486805, “Identification of a Phage Display-Derived Peptide Interacting with the N-Terminal Region of Factor VII Activating Protease (FSAP) Enables Characterization of Zymogen Activation” (ACS Chemical Biology, 2022).

T1 sequence (Q14520 24-560): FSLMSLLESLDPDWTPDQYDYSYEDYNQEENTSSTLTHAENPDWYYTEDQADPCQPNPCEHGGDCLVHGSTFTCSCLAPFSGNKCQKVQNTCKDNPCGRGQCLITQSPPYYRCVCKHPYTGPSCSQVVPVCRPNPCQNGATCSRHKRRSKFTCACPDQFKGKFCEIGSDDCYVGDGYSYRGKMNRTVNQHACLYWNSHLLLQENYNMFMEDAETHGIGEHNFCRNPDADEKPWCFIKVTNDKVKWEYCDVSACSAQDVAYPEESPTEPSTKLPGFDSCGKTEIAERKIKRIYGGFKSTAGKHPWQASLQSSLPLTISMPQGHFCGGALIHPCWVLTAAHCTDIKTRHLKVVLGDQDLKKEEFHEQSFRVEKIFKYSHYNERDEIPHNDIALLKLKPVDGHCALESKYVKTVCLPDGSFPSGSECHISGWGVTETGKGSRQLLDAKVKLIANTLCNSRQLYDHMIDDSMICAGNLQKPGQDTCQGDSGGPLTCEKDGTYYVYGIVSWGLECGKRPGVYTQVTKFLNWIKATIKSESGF

In the case of CRGAMWMYKRC [NNKC9/41], the “effect on pro-FSAP activation” value in test [1] (purified pro-FSAP 1.0 μg/mL, peptides 0–50 μM, histones 0–50 μg/mL, S-2288 (200 μM in legend b10, 250 μM in method b60), 37 °C, 405 nm, duplicate wells) is recorded as “able to robustly activate pro-FSAP”. Moreover, in test [1] (purified pro-FSAP, S-2288, linear synthetic peptide stored under oxidative conditions, duplicate wells, five batches), the Maximal activation is 2–2.5 fold. Besides, the “selectivity for pro-FSAP activation” value in test [1] (versus plasminogen, pro-urokinase, factor XII, prothrombin, factor X and active enzymes) is given as “very high selectivity”. The substrate turnover entry in test [2] is reported as “no turnover of the substrate”; with pro-FSAP in WT/WT plasma, “high substrate turnover”.
